Data taken from patent US4906638A (priority 1987, dated 1990).
“Also recorded” adds a separate entry of the source.

Assays:
[1] = rotorod-ataxia toxicity test (CNS side effects); settings: mouse, in vivo
Excerpt: Mice that were unable to maintain equilibrium for one continuous minute, given 3 opportunities were scored as ataxic.

[2] = test system: maximal electroshock seizures (tonic hindlimb extension); assay: maximal electroshock (MES) procedure for mice, transauricular (Example I); assay type: in vivo; settings: for % Mice Protected: 15 min before MES
Method: For combination studies two separate injections were administered. […] The absence of tonic hindlimb extension was taken as evidence for seizure protection.

[3] = test system: [^3 H]dextromethorphan receptor; settings: central nervous system site; cited from earlier work

NC(=O)N1c2ccccc2C=Cc2ccccc21 [carbamazepine, 5-H-dibenzepin-(5)-carboxamide]
TD50 at […] [1]: 44.8 mg/kg | % Mice Protected ([2]; CBM 1 mg/kg alone): 0% | % Mice Protected ([2]; CBM 3 mg/kg alone): 0% | % Mice Protected ([2]; CBM 6 mg/kg alone): 25% | % Mice Protected ([2]; CBM 8 mg/kg alone): 50% | % Mice Protected ([2]; CBM 9 mg/kg alone): 75% | % Mice Protected ([2]; CBM 12 mg/kg alone): 100% | ED50 ([2]; CBM alone, 15 min): 7.2 mg/kg | effect on [^3 H]dextromethorphan binding / binding to the dextromethorphan site (in words) [3]: did not inhibit or enhance; also recorded: do not inhibit or enhance binding
